# Source: patent US20210015897A1, “METHODS TO PRODUCE PEPTIDES, POLYPEPTIDES OR CELLS FOR MODULATING IMMUNITY” (IMNATE SARL, priority 2017, published 2021)
# What was measured:
# CD4+ T cells = assay: Proliferation of AAV-specific CD4+ T cells on peptide-loaded dendritic cells (thymidine incorporation); format: cell-based, mice
# Text: The peptide of interest is then produced by chemical synthesis together with a potentiating motif made of a cysteine residue added to flanking regions on each side of the epitope (SEQ ID NO: 18).
# AAV vector = assay: Immune response to IV AAV vector particles in peptide-immunized mice; format: in vivo; conditions: 10^9 AAV vector particles IV twice at an interval of 6 weeks
# Text: Mice immunized with peptide of SEQ ID NO: 18 are then used for direct IV administration of 10^9 AAV vector particles administered twice at an interval of 6 weeks.
# [1] = test system: CD4+ T cells to the AAV capsid; assay: Functional assay of spleen CD4+ T cells after subcutaneous immunisation with peptide in alum; format: in vivo, mice; conditions: 4 subcutaneous administrations at fortnight intervals with alum; spleen 10 days after last immunization
# [2] = test system: class II-restricted effector CD4+ T cells; assay: Peptide added to dendritic cells in cultures with class II-restricted effector CD4+ T cells; format: cell-based, human
# Description: Naïve human CD4+ T cells are obtained from peripheral blood of subjects carrying either the DQ2 or DQ8 haplotype using microbeads coated with an anti-CD4+ antibody. Such cells are incubated with autologous dendritic cells derived from peripheral blood monocytes and loaded with peptide of sequence (SEQ ID NO: 19) so as to obtain effector CD4+ T cells.
# In parallel experiments, a peptide of same sequence but containing a potentiating motif within flanking residues is used. Thus, a peptide of sequence (SEQ ID NO: 20) is produced, which contains in its flanking residues a sequence derived from an antibody to CD4, specific for the second extracellular domain of CD4.
substance,measurement,setting,value
SEQ ID NO: 17: AAV VP1 capsid peptide encompassing an epitope activating CD4+ T cells (FNGLDKGEPVNEA; AAV),specificity of CD4+ T cell activation by thymidine incorporation as a marker of proliferation,CD4+ T cells,confirmed to be specific
SEQ ID NO: 18: AAV VP1 epitope with a cysteine residue added to flanking regions on each side (HCFNGLDKGEPVNEACH; SEQ 17 + Cys and Cys),immune response towards the AAV vector,AAV vector,do not mount an immune response towards the AAV vector
same,activity of CD4+ T cells obtained by the immunisation schedule,[1],exert a regulatory activity
SEQ ID NO: 20: peptide of same sequence as SEQ ID NO: 19 with flanking sequence derived from an antibody to CD4 (QLQPFPQPQLPYPQRYD; SEQ I9 + CD4 motif),apoptosis of antigen-presenting dendritic cell and bystander effector CD4+ T cells,[2],induction of apoptosis
same,conversion of effector CD4+ T cells,[2],conversion of effector CD4+ T cells into cells with strong regulatory activity
